# Results as given in patent US20240238304A1, “Small Molecule Degraders of DOT1L and Uses Thereof” (Northwestern University, priority 2022, published 2024).
# Assays:
# DOT1L [1] = target: T1, DOT1L (Homo sapiens, UniProt Q8TEK3); experiment: Screening of PROTAC degraders of DOT1L: western blotting of nuclear extract; type: cell-based; details: 1 μM, 48 h (2 days) treatment, LNCaP cell line, Lamin B loading control
# T1 construct: nuclear protein was extracted using NE-PER Nuclear and Cytoplasmic Extraction Reagents; endogenous in cells; host or cells: LNCaP
# Description: LNCaP cells were cultured in complete RPMI1640 media. 70-80% confluent of cells were treated with 1 μM PROTAC degraders of DOT1L (Group A-D), 1 μM parent compound 534, 1 μM EPZ5676, and DMSO (Vehicle) for 48 h. Then, nuclear protein was extracted using NE-PER Nuclear and Cytoplasmic Extraction Reagents (Thermo Scientific 78833) followed by western blotting. Protein band intensity was measured by Image J.
# (§1) Nuclear protein extracts were separated by Bolt™ 4-12% Bis-Tris Plus Gels (Invitrogen) and transferred to PVDF membranes by wet transfer. The membranes were blocked with 5% Blotting-Grade Blocker (Bio-Rad) in Tris-buffered saline with 0.5% Tween 20 (TBST) for 1 h at room temperature, and then incubated overnight at 4° C. in blocking buffer with primary antibody including rabbit DOT1L (D1W4Z) mAb1:3000 (CellSignalingTechnology, Cat #77087) and goat lamin B(C-20) pAb 1:1000 (Santa Cruz Biotechnology, Cat #sc-6216). After incubation with HRP-conjugated goat anti-rabbit secondary antibody 1:10,000 (Bio-Rad, Cat #170-6515) or HRP-conjugated donkey anti-goat secondary antibody 1:3000 (Santa Cruz Biotechnology, Cat #sc-2020) for 1 h, the membranes were detected using Super Signal West Femto (Thermo Fisher Scientific, Cat #34096).
# DOT1L [2] = target: T1, DOT1L; experiment: Time-course analysis of DOT1L degradation: western blotting of nuclear extract; type: cell-based; details: 1 μM, multiple time points 1 h to 72 h, LNCaP cell line, nuclear extraction
# Description: LNCaP cells were culturedincompleteRPMIl640 media. 70-80% confluent of cells were treated with 1 μM 705 (Group D), 1 μM 588 (Group A), 1 μM 593 (Group C), 1uM 534 (parent), 1 μM EPZ5676, and DMSO for 1 h, 2 h, 6 h, 24 h, 48 h, and 72 h. Then, nuclear protein was extracted using NE-PER Nuclear and Cytoplasmic Extraction Reagents (Thermo Scientific 78833) followed by western blotting. Protein band intensity was measured by Image J.
# as §1
# T1 sequence (Q8TEK3 whole entry): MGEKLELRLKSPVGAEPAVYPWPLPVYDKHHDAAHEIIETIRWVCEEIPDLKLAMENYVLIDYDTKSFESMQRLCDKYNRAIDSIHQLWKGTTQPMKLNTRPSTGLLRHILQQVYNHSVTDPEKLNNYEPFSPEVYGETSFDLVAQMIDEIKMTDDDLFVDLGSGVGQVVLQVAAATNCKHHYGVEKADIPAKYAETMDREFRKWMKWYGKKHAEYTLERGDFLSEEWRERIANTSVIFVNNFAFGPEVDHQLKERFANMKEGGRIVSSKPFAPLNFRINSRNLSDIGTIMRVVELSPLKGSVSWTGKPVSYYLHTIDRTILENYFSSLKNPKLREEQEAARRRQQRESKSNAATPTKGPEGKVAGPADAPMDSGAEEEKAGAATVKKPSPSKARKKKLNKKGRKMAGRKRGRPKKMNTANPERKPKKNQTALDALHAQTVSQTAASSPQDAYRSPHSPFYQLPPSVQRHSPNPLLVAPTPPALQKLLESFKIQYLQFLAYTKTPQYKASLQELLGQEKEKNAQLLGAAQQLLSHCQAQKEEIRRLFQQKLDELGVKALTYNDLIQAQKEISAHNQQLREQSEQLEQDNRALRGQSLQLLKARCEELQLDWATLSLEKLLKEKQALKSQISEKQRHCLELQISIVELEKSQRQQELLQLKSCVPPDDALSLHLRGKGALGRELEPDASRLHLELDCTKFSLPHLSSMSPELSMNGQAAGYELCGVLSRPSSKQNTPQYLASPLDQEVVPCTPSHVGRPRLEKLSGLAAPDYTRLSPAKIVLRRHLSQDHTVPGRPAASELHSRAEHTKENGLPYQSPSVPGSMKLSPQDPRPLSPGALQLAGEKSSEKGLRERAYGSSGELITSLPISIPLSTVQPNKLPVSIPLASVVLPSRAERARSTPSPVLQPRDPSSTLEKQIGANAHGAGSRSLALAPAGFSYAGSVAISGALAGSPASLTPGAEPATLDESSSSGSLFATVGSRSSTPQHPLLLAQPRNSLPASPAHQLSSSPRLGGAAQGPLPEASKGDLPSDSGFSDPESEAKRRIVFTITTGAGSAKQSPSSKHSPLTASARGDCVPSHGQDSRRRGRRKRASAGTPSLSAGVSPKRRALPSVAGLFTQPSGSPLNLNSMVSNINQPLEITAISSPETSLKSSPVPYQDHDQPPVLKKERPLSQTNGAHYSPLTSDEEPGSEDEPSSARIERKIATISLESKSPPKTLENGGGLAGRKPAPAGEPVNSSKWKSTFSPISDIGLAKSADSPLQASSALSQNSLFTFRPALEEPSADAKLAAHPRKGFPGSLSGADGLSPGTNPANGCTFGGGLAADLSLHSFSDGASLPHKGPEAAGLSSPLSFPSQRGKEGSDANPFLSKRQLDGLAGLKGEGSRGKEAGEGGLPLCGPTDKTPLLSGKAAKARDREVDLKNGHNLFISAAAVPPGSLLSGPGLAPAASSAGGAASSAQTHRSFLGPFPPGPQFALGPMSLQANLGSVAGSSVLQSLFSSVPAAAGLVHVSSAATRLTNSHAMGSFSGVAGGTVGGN
"DOT1L degradation (western blot, nuclear extraction) (DOT1L [1])",DOT1L degradation over time (order of degradation) (DOT1L [2]),Structure (SMILES)
didn't degrade DOT1L protein,didn't degrade DOT1L until 72 h,COc1nc(Nc2cc(S(C)(=O)=O)ccc2N[C@@H](c2cccc3c2OC(F)(F)O3)c2ncccc2Cl)nc(N2CCNCC2)n1 [Compound 534]
accelerated the most DOT1L degradation,degraded DOT1L protein in this order,COc1nc(Nc2cc(S(C)(=O)=O)ccc2N[C@@H](c2cccc3c2OC(F)(F)O3)c2ncccc2Cl)nc(N2CCN(CCOCCNC(=O)COc3cccc4c3C(=O)N(C3CCC(=O)NC3=O)C4=O)CC2)n1 (stereo partly drawn) [Compound 588]
didn't degrade DOT1L protein,didn't degrade DOT1L until 72 h,"CC(C)N(C[C@H]1O[C@@H](n2cnc3c(N)ncnc32)[C@H](O)[C@@H]1O)[C@H]1C[C@@H](CCc2nc3cc(C(C)(C)C)ccc3[nH]2)C1 [EPZ5676, reference compound]"
